Marks after values point to notes of the source that are not given here.
Tests used:
[1] = Acute toxicity test of single administration to ICR mice; details: mouse, in vivo, intravenous, single tail vein injection, observed 7 days
Protocol: ICR mice, 18-22 g, were raised in a common-grade animal room, fed with common feed, and ingested freely. The group distance and dose were determined after exploring the Dm and Dn of the compounds of the examples. Five concentrations of the compounds of the examples were formulated at the desired dose. The corresponding doses of drugs were injected into the tail vein according to body weight, and the blank control group was injected with normal saline. Immediately after administration, the performance and death of each animal were observed and recorded, and the possible toxic reaction or death of animals within 7 days after a single administration was observed and recorded.

[2] = system: Breast cancer MCF-7 cells; assay: In vitro antitumor activity test (MTT), MCF-7; format: cell-based; details: Homo sapiens, MCF7; Breast cancer MCF-7, MTT, 24 h
Protocol: (§1) 13 human tumor cell lines were selected and cultured in RPMI-1640 medium (Gibco company) containing 10% inactivated fetal bovine serum, 100 U/ml penicillin and 100 U/ml streptomycin, cultured at 37° C. in a 5% CO2 incubator, and passaged once every 2 days. Using the MTT method, cells in the logarithmic growth phase were digested with 0.25% trypsin, centrifuged at 1000 r/min for 5 min, 8×10^3 cells were added to each well, and seeded in a 96-well plate, and 180 μl of cell suspension was added to each well, and a blank was set at the same time. The 96-well plate inoculated with tumor cells was placed in a carbon dioxide incubator for 24 hours, and then 20 μl of the drug was added, and an equal volume of culture medium was added to the blank control well, and the drug was divided into 8 concentrations from 50 μg/L to 0.4 μg/L. Three duplicate wells were set for each drug concentration and placed in an incubator for 24 h. 10 μl of MTT solution (5 mg/ml) was added to each well, and the culture was continued for 4 h. The supernatant was aspirated and discarded, 100 μl of dimethyl sulfoxide (DMSO) solution was added to each well, placed on a micro shaker for 10 min, and the absorbance (A value) was measured at a wavelength of 492 nm in a microplate reader, and the inhibition rate of the drug on tumor cells was calculated according to the following formula.
(§2) In this test, the IC50 value of the compound on tumor cells was calculated by the Origin software according to the inhibition rate of the compound. AC-201 in the following table was the abbreviation of PL-AC-201, and so on.

[3] = system: Human osteosarcoma MG63 cells; assay: In vitro antitumor activity test (MTT), MG63; format: cell-based; details: MG-63, 24 h
Protocol: as §1, §2

[4] = system: Liver cancer HepG-2 cells; assay: In vitro antitumor activity test (MTT), HepG-2; format: cell-based; details: Homo sapiens, HepG2; Liver cancer HepG-2, MTT, 24 h
Protocol: as §1, §2

HepG-2 liver tumors = assay: Transplanted tumor in nude mice, intraperitoneal, HepG-2; format: in vivo, BALB/c nude mice; details: 8 administrations; for Tumor inhibition rate / Tumor weight: HepG-2, 5 mg/kg i.p. once every 3 days; for Body Weight After administration: HepG-2 tumor-bearing BALB/c mice, 5 mg/kg i.p. once every 3 days
Protocol: (§3) BALB/c nude mice were used to inoculate Bel-7402, HepG-2 and SK-hep1 liver tumors according to the transplanted tumor research method under aseptic operation, and the cell density was not less than 5×10^6/ml, 0.2 ml was inoculated subcutaneously in the axilla of the right hind limb of each mouse. After the cells were inoculated, the cells were administered intraperitoneally (concentration: 5 mg/kg), once every 3 days, for a total of 8 administrations. After the 2nd day of drug withdrawal, all tumor-bearing mice were sacrificed, and their body weight, tumor weight and tumor inhibition were weighed.

Melanoma B16 cells = assay: In vitro antitumor activity test (MTT), B16; format: cell-based; details: 24 h
Protocol: as §1, §2

[5] = system: Pancreatic cancer Bxpc-3 cells; assay: In vitro antitumor activity test (MTT), Bxpc-3; format: cell-based; details: Homo sapiens; Pancreatic cancer Bxpc-3, MTT, 24 h
Protocol: as §1, §2

human red blood cells = assay: Detection of hemolytic activity; format: cell-based
Protocol: 2-3 ml of human blood was drawn using an anticoagulant tube, thoroughly mixed, and kept at 4° C. for later use. 2 ml of blood was aspirated and added with 2-3 ml of PBS, followed by gently pipetting and centrifugation for 5 min at 1000 rpm, which was repeated 3-4 times. After the last centrifugation, PBS was aspirated, PBS was added to 40 ml (20 times the volume), and the number of blood cells at this time was 2×10^8 cells/ml. The red blood cell suspension was added to the plate (U-shaped 96-well plate), and 70 μl/well was used as a negative well. Only PBS was added to blank wells, 140 μl/well. 2 ml of the red blood cell suspension was centrifuged, PBS was discarded, 2 ml of pure water was added, mixed well, and 140 μl/well was used as a positive well. The diluted polypeptide solutions of different concentrations were added to the plate, 70 μl/well. Incubated at 37° C., 87 rpm, shaken for 2h, centrifuged for 5 min at 3000 rpm. The OD value measured by microplate reader: After centrifugation, 90 μl of supernatant was drawn and transferred to a flat-bottom 96-well plate, and the OD value at 578 nm was measured by microplate reader. ODtest-OD negative >0.1 (the first concentration that met the conditions was MHC).

[6] = system: 13 human tumor cell lines; assay: Average IC50 over the tumor cell lines (MTT); format: cell-based; details: mean IC50 for each tumor, read-out: AverageIC50
Protocol: as §1, §2
The ratio of the hemolytic concentration MHC of the compound to the mean IC50 for each tumor was referred to as the therapeutic index (TI). The safety of the compound was evaluated by the therapeutic index. The higher the therapeutic index, the greater the safety range of the compound.

Colon cancer HT29 cells = assay: In vitro antitumor activity test (MTT), HT29; format: cell-based; details: Homo sapiens, HT-29, 24 h
Protocol: as §1, §2

Bel-7402 liver tumors = assay: Transplanted tumor in nude mice, intraperitoneal, Bel-7402; format: in vivo, BALB/c nude mice; details: 8 administrations; for Tumor inhibition rate / Tumor weight: Bel-7402, 5 mg/kg i.p. once every 3 days; for Body Weight After administration: Bel-7402 tumor-bearing BALB/c mice, 5 mg/kg i.p. once every 3 days
Protocol: as §3

Lung cancer H292 cells = assay: In vitro antitumor activity test (MTT), H292; format: cell-based; details: Homo sapiens, NCI-H292, 24 h
Protocol: as §1, §2

Lung cancer A549 cells = assay: In vitro antitumor activity test (MTT), A549; format: cell-based; details: Homo sapiens, 24 h
Protocol: as §1, §2

[7] = system: Cervical cancer Hela cells; assay: In vitro antitumor activity test (MTT), Hela; format: cell-based; details: Homo sapiens, 24 h
Protocol: as §1, §2

[8] = system: Liver cancer Bel-7402 cells; assay: In vitro antitumor activity test (MTT), Bel-7402; format: cell-based; details: Homo sapiens; Liver cancer Bel-7402, MTT, 24 h
Protocol: as §1, §2

Lung cancer H460 cells = assay: In vitro antitumor activity test (MTT), H460; format: cell-based; details: Homo sapiens, NCI-H460, 24 h
Protocol: as §1, §2

Lung cancer H1299 cells = assay: In vitro antitumor activity test (MTT), H1299; format: cell-based; details: Homo sapiens, NCI-H1299, 24 h
Protocol: as §1, §2

[9] = system: Liver cancer SK-hep1 cells; assay: In vitro antitumor activity test (MTT), SK-hep1; format: cell-based; details: Homo sapiens, 24 h
Protocol: as §1, §2

SK-hep1 liver tumors = assay: Transplanted tumor in nude mice, intraperitoneal, SK-hep1; format: in vivo, BALB/c nude mice; details: 8 administrations; for Tumor inhibition rate / Tumor weight: SK-hep1, 5 mg/kg i.p. once every 3 days; for Body Weight After administration: SK-hep1 tumor-bearing BALB/c mice, 5 mg/kg i.p. once every 3 days
Protocol: as §3

[10] = human red blood cells, 37° C., 2h, first concentration with ODtest-OD negative >0.1

Structure (SMILES) | LD50 at 7 days [1] [mg/kg] | IC50 [2] [µM] | IC50 [3] [µM] | IC50 [4] [µM] | Tumor inhibition rate (HepG-2 liver tumors) | Tumor weight (HepG-2 liver tumors) [mg] | Body Weight After administration (HepG-2 liver tumors) [g] | IC50 (Melanoma B16 cells) [µM] | IC50 [5] [µM] | MHC (human red blood cells; hemolytic concentration, in nM) [nM] | MHC (human red blood cells; [10]) [µg/mL] | IC50 [6] [µM] | IC50 (Colon cancer HT29 cells) [µM] | IC50 (Lung cancer H292 cells) [µM] | IC50 (Lung cancer A549 cells) [µM] | IC50 [7] [µM] | IC50 [8] [µM] | IC50 (Lung cancer H460 cells) [µM] | IC50 (Lung cancer H1299 cells) [µM] | IC50 [9] [µM] | also measured
CC(=O)Oc1ccccc1C(=O)NC(Cc1ccc(-c2ccccc2)cc1)C(=O)NC1CC(C)(C)NC(C)(C)C1 (stereo not drawn) [PL-AC-201] | 27.2 | 0.0243 | 0.0248 | 0.0161 | 69.3** % | 506.9 ± 9.4 | 22.9 ± 1.4 | 0.0298 | 0.0521 | 5.8e+06 | 3000 | 0.0282 | 0.0359 | 0.0223 | 0.0299 | 0.0195 | 0.0502 | 0.0219 | 0.0237 | 0.0162 | Tumor inhibition rate (Bel-7402 liver tumors): ^ΔΔ66.2** %; Tumor weight (Bel-7402 liver tumors): 268.1 ± 9.6 mg; Body Weight After administration (Bel-7402 liver tumors): 23.2 ± 1.0 g; Tumor inhibition rate (SK-hep1 liver tumors): 61.2** %; Tumor weight (SK-hep1 liver tumors): 434.7 ± 9.4 mg; Body Weight After administration (SK-hep1 liver tumors): 23.7 ± 1 g
CC1(C)CC(NC(=O)C(Cc2ccc(-c3ccccc3)cc2)NC(=O)c2cc3ccccc3n2Cc2ccccc2)CC(C)(C)N1 (stereo not drawn) [PL-AC-15, reference compound] | 23.6 | 0.0232 | 0.0258 | 0.0162 | 66.7** % | 549.9 ± 10.2 | 23.8 ± 1.0 | 0.0305 | 0.0489 | 1.6e+06 | 1000 | 0.032 | 0.0382 | 0.0283 | 0.0312 | 0.0197 | 0.0817 | 0.022 | 0.0244 | 0.0264 | Tumor inhibition rate (Bel-7402 liver tumors): 61.8** %; Tumor weight (Bel-7402 liver tumors): 302.9 ± 0.8 mg; Body Weight After administration (Bel-7402 liver tumors): 25.2 ± 1.1 g; Tumor inhibition rate (SK-hep1 liver tumors): 60.6** %; Tumor weight (SK-hep1 liver tumors): 441.5 ± 10.8 mg; Body Weight After administration (SK-hep1 liver tumors): 23.2 ± 0.3 g
COc1ccc2c(c1)c(CC(=O)NC(Cc1ccc(-c3ccccc3)cc1)C(=O)NC1CC(C)(C)NC(C)(C)C1)c(C)n2C(=O)c1ccc(Cl)cc1 (stereo not drawn) [PL-AC-205] | 35.6 | 0.0232 | 0.0257 | 0.0162 | ^Δ71.8** % | 465.6 ± 5.9 | 21.9 ± 1.2 | 0.0317 | 0.0453 | 4.2e+06 | 3000 | 0.0253 | 0.037 | 0.0274 | 0.0245 | 0.0195 | < 0.0382 | 0.0203 | 0.0203 | 0.0124 | Tumor inhibition rate (Bel-7402 liver tumors): ^ΔΔ69.4** %; Tumor weight (Bel-7402 liver tumors): 242.8 ± 6.6 mg; Body Weight After administration (Bel-7402 liver tumors): 23.9 ± 0.6 g; Tumor inhibition rate (SK-hep1 liver tumors): 62.0** %; Tumor weight (SK-hep1 liver tumors): 425.8 ± 10.7 mg; Body Weight After administration (SK-hep1 liver tumors): 22.2 ± 0.9 g
CC1(C)CC(NC(=O)C(Cc2ccc(-c3ccccc3)cc2)NC(=O)Cc2ccccc2Nc2c(Cl)cccc2Cl)CC(C)(C)N1 (stereo not drawn) [PL-AC-203] | 39.8 | 0.0231 | 0.026 | 0.016 | ^ΔΔ72.4** % | 455.8 ± 9.9 | 22.7 ± 1.7 | 0.0301 | 0.0494 | 3e+06 | 2000 | 0.0277 | 0.037 | 0.0249 | 0.0242 | 0.02 | 0.0454 | 0.0208 | 0.0205 | 0.0226 | Tumor inhibition rate (Bel-7402 liver tumors): 58.7** %; Tumor weight (Bel-7402 liver tumors): 327.4 ± 10.4 mg; Body Weight After administration (Bel-7402 liver tumors): 24.1 ± 0.9 g; Tumor inhibition rate (SK-hep1 liver tumors): ^ΔΔ68.3** %; Tumor weight (SK-hep1 liver tumors): 355.2 ± 1.2 mg; Body Weight After administration (SK-hep1 liver tumors): 24.7 ± 0.5 g
CC(C(=O)NC(Cc1ccc(-c2ccccc2)cc1)C(=O)NC1CC(C)(C)NC(C)(C)C1)c1cccc(C(=O)c2ccccc2)c1 (stereo not drawn) [PL-AC-206] | 31.7 | 0.0225 | 0.0249 | 0.0161 | ^ΔΔ74.6** % | 468.9 ± 2.2 | 23.5 ± 1.1 | 0.0301 | 0.0377 | 4.9e+06 | 3000 | 0.0246 | 0.0374 | 0.0241 | 0.0275 | 0.0192 | < 0.0382 | 0.02 | 0.0202 | 0.0157 | Tumor inhibition rate (Bel-7402 liver tumors): ^ΔΔ71.4** %; Tumor weight (Bel-7402 liver tumors): 226.8 ± 9.1 mg; Body Weight After administration (Bel-7402 liver tumors): 23.8 ± 1.3 g; Tumor inhibition rate (SK-hep1 liver tumors): ^ΔΔ69.9** %; Tumor weight (SK-hep1 liver tumors): 337.3 ± 6.1 mg; Body Weight After administration (SK-hep1 liver tumors): 23.0 ± 1.5 g
C/C(=C1/c2ccc(F)cc2C(CC(=O)NC(Cc2ccc(-c3ccccc3)cc2)C(=O)NC2CC(C)(C)NC(C)(C)C2)C1C)c1ccc([S+](C)[O-])cc1 (stereo not drawn) [PL-AC-204] | 29.9 | 0.0231 | 0.0245 | 0.0159 | 65.1** % | 576.3 ± 10.7 | 23.1 ± 1.0 | 0.0305 | 0.0494 | 4.1e+06 | 3000 | 0.0281 | 0.0374 | 0.0276 | 0.0298 | 0.0192 | 0.0407 | 0.0216 | 0.0216 | 0.0236 | –
